From patent US10221177B2 (HYDRA BIOSCIENCES, INC., priority 2014, dated 2019) come the findings set out here.

pIC50: −log10 of the molar value. Bounds are passed on as bounds.

Chain of human TRPA1 (O75762 whole entry, the tested form may be a part): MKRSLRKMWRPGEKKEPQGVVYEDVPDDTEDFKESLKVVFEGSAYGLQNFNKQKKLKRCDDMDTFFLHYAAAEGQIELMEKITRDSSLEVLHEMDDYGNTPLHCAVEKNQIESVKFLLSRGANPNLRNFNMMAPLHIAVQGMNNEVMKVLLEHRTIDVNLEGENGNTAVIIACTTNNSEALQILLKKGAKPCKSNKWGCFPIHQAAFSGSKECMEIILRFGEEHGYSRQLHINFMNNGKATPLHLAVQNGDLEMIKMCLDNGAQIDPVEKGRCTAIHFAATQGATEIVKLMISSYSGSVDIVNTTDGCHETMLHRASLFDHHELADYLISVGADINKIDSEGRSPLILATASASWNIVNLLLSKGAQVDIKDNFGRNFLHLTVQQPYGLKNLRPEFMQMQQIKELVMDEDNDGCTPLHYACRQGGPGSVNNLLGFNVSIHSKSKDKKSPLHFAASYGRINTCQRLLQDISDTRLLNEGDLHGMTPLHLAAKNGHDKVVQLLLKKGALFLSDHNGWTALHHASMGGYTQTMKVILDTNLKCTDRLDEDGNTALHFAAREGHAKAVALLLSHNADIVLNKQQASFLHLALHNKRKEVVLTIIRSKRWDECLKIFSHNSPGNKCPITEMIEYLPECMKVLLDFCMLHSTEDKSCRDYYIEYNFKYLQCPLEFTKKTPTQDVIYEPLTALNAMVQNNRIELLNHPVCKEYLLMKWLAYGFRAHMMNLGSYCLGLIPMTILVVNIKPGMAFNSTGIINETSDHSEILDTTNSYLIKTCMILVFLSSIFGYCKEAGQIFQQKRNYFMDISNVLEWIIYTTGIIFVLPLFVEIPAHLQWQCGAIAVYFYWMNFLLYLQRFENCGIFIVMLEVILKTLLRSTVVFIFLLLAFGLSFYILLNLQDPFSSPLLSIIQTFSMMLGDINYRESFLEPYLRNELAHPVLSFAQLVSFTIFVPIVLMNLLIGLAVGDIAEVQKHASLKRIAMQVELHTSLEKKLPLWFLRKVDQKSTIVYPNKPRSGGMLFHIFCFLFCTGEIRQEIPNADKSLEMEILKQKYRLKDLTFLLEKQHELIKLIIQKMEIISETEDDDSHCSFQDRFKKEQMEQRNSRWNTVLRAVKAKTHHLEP

The assay deals with human TRPA1 (Homo sapiens (Human), UniProt O75762). Kind of assay: In vitro inhibition of human TRPA1, whole cell patch configuration. The format is cell-based. The note with it: current activation 10 μM AITC, tested concentrations 320 pM to 3.2 μM, read-out: hTRPA1 IC50. The essentials:
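Compound antagonism measured from voltage ramps (±100 or ±80 mV, 400 ms, every 4 s from −40 mV), analysed at −80 and 80 mV, or at constant −60 mV. HEPES-buffered NaCl bath, pH 7.4, EGTA or 2 mM Ca2+; temperature set by perfusion, within ±2° C; no junction-potential correction.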
Regarding `Cc1cc(Cn2c(=O)c3c(ncn3CC(=O)Nc3cccc(N4CCC(F)(F)CC4)n3)n(C)c2=O)no1` [Compound 196, N-(6-(4,4-difluoropiperidin-1-yl)pyridin-2-yl)-2-(3-methyl-1-((5-methylisoxazol-3-yl)methyl)-2,6-dioxo-2,3-dihydro-1H-purin-7(6H)-yl)acetamide], the negative logarithm of the IC50 (pIC50) is 6.91. Regarding `Cc1cc(Cn2c(=O)c3c(ncn3CC(=O)Nc3cccc(N4CC(F)(F)C4)n3)n(C)c2=O)no1` [Compound 197, N-(6-(3,3-difluoroazetidin-1-yl)pyridin-2-yl)-2-(3-methyl-1-((5-methylisoxazol-3-yl)methyl)-2,6-dioxo-2,3-dihydro-1H-purin-7(6H)-yl)acetamide], the pIC50 is 6.53. In the case of `Cc1cc(Cn2c(=O)c3c(ncn3CC(=O)Nc3ccc4ccccc4n3)n(C)c2=O)no1` [Compound 199, 2-(3-Methyl-1-((5-methylisoxazol-3-yl)methyl)-2,6-dioxo-2,3-dihydro-1H-purin-7(6H)-yl)-N-(quinolin-2-yl)acetamide] it was 6.39; in that of `Cc1cc(Cn2c(=O)c3c(ncn3CC(=O)Nc3ccc(Br)c(C(F)(F)F)n3)n(C)c2=O)no1` [Compound 200, N-(5-bromo-6-(trifluoromethyl)pyridin-2-yl)-2-(3-methyl-1-((5-methyl-isoxazol-3-yl)methyl)-2,6-dioxo-2,3-dihydro-1H-purin-7(6H)-yl)acetamide], 7.47; in that of `Cc1cc(Cn2c(=O)c3c(ncn3CC(=O)Nc3ccc(C#N)c(C(F)(F)F)n3)n(C)c2=O)no1` [Compound 201, N-(5-cyano-6-(trifluoromethyl)pyridin-2-yl)-2-(3-methyl-1-((5-methylisoxazol-3-yl)methyl)-2,6-dioxo-2,3-dihydro-1H-purin-7(6H)-yl)acetamide], 6.51. For `Cc1cc(Cn2c(=O)c3c(ncn3CC(=O)Nc3cccc(N4CCC(C(F)(F)F)CC4)n3)n(C)c2=O)no1` [Compound 202, 2-(3-methyl-1-((5-methylisoxazol-3-yl)methyl)-2,6-dioxo-2,3-dihydro-1H-purin-7(6H)-yl)-N-(6-(4-(trifluoromethyl)piperidin-1-yl)pyridin-2-yl)acetamide] the value was 7.59.

Turning to `CCc1cc(NC(=O)Cn2cnc3c2c(=O)n(Cc2cc(C)on2)c(=O)n3C)nc(C(F)(F)F)c1` [Compound 203, N-(4-ethyl-6-(trifluoromethyl)pyridin-2-yl)-2-(3-methyl-1-((5-methylisoxazol-3-yl)methyl)-2,6-dioxo-2,3-dihydro-1H-purin-7(6H)-yl)acetamide], the pIC50 was 5.79.

As for `COc1cc(NC(=O)Cn2cnc3c2c(=O)n(Cc2cc(C)on2)c(=O)n3C)nc(C(F)(F)F)c1` [Compound 204, N-(4-methoxy-6-(trifluoromethyl)pyridin-2-yl)-2-(3-methyl-1-((5-methylisoxazol-3-yl)methyl)-2,6-dioxo-2,3-dihydro-1H-purin-7(6H)-yl)acetamide], the pIC50 is 5.49. For `CCN(c1ccc(NC(=O)Cn2cnc3c2c(=O)n(Cc2cc(C)on2)c(=O)n3C)cc1)C(F)(F)F` [Compound 211, N-(4-(ethyl(trifluoromethyl)amino)phenyl)-2-(3-methyl-1-((5-methylisoxazol-3-yl)methyl)-2,6-dioxo-2,3-dihydro-1H-purin-7(6H)-yl)acetamide] the value was less than 6.00; for `Cc1cc(Cn2c(=O)c3c(ncn3CC(=O)Nc3cccc(N4CC5CC5C4)n3)n(C)c2=O)no1` (stereo not shown) [Compound 212, N-(6-(3-azabicyclo[3.1.0]hexan-3-yl)pyridin-2-yl)-2-(3-methyl-1-((5-methylisoxazol-3-yl)methyl)-2,6-dioxo-2,3-dihydro-1H-purin-7(6H)-yl)acetamide], 7.21; for `Cc1cc(Cn2c(=O)c3c(ncn3CC(=O)Nc3cccc(N4CC5C(C4)C5(F)F)n3)n(C)c2=O)no1` (stereo not shown) [Compound 213, N-(6-(6,6-difluoro-3-azabicyclo[3.1.0]hexan-3-yl)pyridin-2-yl)-2-(3-methyl-1-((5-methylisoxazol-3-yl)methyl)-2,6-dioxo-2,3-dihydro-1H-purin-7(6H)-yl)acetamide], 6.85. Regarding `Cc1cc(Cn2c(=O)c3c(ncn3CC(=O)Nc3cccc(N4CCN(CC(F)(F)F)CC4)n3)n(C)c2=O)no1` [Compound 214, 2-(3-methyl-1-((5-methylisoxazol-3-yl)methyl)-2,6-dioxo-2,3-dihydro-1H-purin-7(6H)-yl)-N-(6-(4-(2,2,2-trifluoroethyl)piperazin-1-yl)pyridin-2-yl)acetamide], the pIC50 was 7.04. In the case of `Cc1cc(Cn2c(=O)c3c(ncn3CC(=O)Nc3cccc(-c4ccc(C(F)(F)F)nc4)n3)n(C)c2=O)no1` [Compound 215, 2-(3-methyl-1-((5-methylisoxazol-3-yl)methyl)-2,6-dioxo-2,3-dihydro-1H-purin-7(6H)-yl)-N-(6′-(trifluoromethyl)-2,3′-bipyridin-6-yl)acetamide] it was 7.60; in that of `CC(=O)Cn1c(=O)c2c(ncn2CC(=O)Nc2csc(-c3cnc(C(F)(F)F)c(C)c3)n2)n(C)c1=O` [Compound 216, 2-(3-methyl-2,6-dioxo-1-(2-oxopropyl)-2,3-dihydro-1H-purin-7(6H)-yl)-N-(2-(5-methyl-6-(trifluoromethyl)pyridin-3-yl)thiazol-4-yl)acetamide], 7.80; in that of `Cc1cc(Cn2c(=O)c3c(ncn3CC(=O)Nc3csc(-c4cnc(C(F)(F)F)c(C)c4)n3)n(C)c2=O)no1` [Compound 217, 2-(3-methyl-1-((5-methylisoxazol-3-yl)methyl)-2,6-dioxo-2,3-dihydro-1H-purin-7(6H)-yl)-N-(2-(5-methyl-6-(trifluoromethyl)pyridin-3-yl)thiazol-4-yl)acetamide], 8.52. In the case of `Cc1cc(Cn2c(=O)c3c(ncn3CC(=O)Nc3cccc(N4CCC(C(C)(C)F)CC4)n3)n(C)c2=O)no1` [Compound 219, N-(6-(4-(2-fluoropropan-2-yl)piperidin-1-yl)pyridin-2-yl)-2-(3-methyl-1-((5-methylisoxazol-3-yl)methyl)-2,6-dioxo-2,3-dihydro-1H-purin-7(6H)-yl)acetamide] it was 7.64; in that of `Cc1cc(Cn2c(=O)c3c(ncn3CC(=O)Nc3ccc(N4CCC(C(C)(C)F)CC4)cn3)n(C)c2=O)no1` [Compound 220, N-(5-(4-(2-fluoropropan-2-yl)piperidin-1-yl)pyridin-2-yl)-2-(3-methyl-1-((5-methylisoxazol-3-yl)methyl)-2,6-dioxo-2,3-dihydro-1H-purin-7(6H)-yl)acetamide], 7.14. On to `Cc1cc(Cn2c(=O)c3c(ncn3CC(=O)Nc3cccc(-c4cnc(C(F)(F)F)c(C)c4)n3)n(C)c2=O)no1` [Compound 221, 2-(3-methyl-1-((5-methylisoxazol-3-yl)methyl)-2,6-dioxo-2,3-dihydro-1H-purin-7(6H)-yl)-N-(5′-methyl-6′-(trifluoromethyl)-[2,3′-bipyridin]-6-yl)acetamide], for which the negative-log IC50 (pIC50) was 8.30. In the case of `Cc1noc(Cn2c(=O)c3c(ncn3CC(=O)Nc3cccc(-c4cnc(C(F)(F)F)c(C)c4)n3)n(C)c2=O)n1` [Compound 222, 2-(3-methyl-1-((3-methyl-1,2,4-oxadiazol-5-yl)methyl)-2,6-dioxo-2,3-dihydro-1H-purin-7(6H)-yl)-N-(5′-methyl-6′-(trifluoromethyl)-[2,3′-bipyridin]-6-yl)acetamide] it was 8.30. For `Cc1nc(Cn2c(=O)c3c(ncn3CC(=O)Nc3cccc(-c4cnc(C(F)(F)F)c(C)c4)n3)n(C)c2=O)no1` [Compound 223, 2-(3-methyl-1-((5-methyl-1,2,4-oxadiazol-3-yl)methyl)-2,6-dioxo-2,3-dihydro-1H-purin-7(6H)-yl)-N-(5′-methyl-6′-(trifluoromethyl)-[2,3′-bipyridin]-6-yl)acetamide] the value was 7.60; for `Cc1cc(-c2cccc(NC(=O)Cn3cnc4c3c(=O)n(Cc3ccon3)c(=O)n4C)n2)cnc1C(F)(F)F` [Compound 224, 2-(1-(isoxazol-3-ylmethyl)-3-methyl-2,6-dioxo-2,3-dihydro-1H-purin-7(6H)-yl)-N-(5′-methyl-6′-(trifluoromethyl)-[2,3′-bipyridin]-6-yl)acetamide], 7.72; for `Cc1cc(Cn2c(=O)c3c(ncn3CC(=O)Nc3cccc(-c4cnc(C(F)(F)F)c(C)c4)n3)n(C)c2=O)on1` [Compound 225, 2-(3-methyl-1-((3-methylisoxazol-5-yl)methyl)-2,6-dioxo-2,3-dihydro-1H-purin-7(6H)-yl)-N-(5′-methyl-6′-(trifluoromethyl)-[2,3′-bipyridin]-6-yl)acetamide], 7.31. For `CCC(=O)Cn1c(=O)c2c(ncn2CC(=O)Nc2cccc(-c3cnc(C(F)(F)F)c(C)c3)n2)n(C)c1=O` [Compound 226, 2-(3-methyl-2,6-dioxo-1-(2-oxobutyl)-2,3-dihydro-1H-purin-7(6H)-yl)-N-(5′-methyl-6′-(trifluoromethyl)-[2,3′-bipyridin]-6-yl)acetamide] the value was 8.10. For `CC(=O)Cn1c(=O)c2c(ncn2CC(=O)Nc2cccc(-c3cnc(C(F)(F)F)c(C)c3)n2)n(C)c1=O` [Compound 227, 2-(3-methyl-2,6-dioxo-1-(2-oxopropyl)-2,3-dihydro-1H-purin-7(6H)-yl)-N-(5′-methyl-6′-(trifluoromethyl)-[2,3′-bipyridin]-6-yl)acetamide], the negative logarithm of the IC50 (pIC50) is 7.66. In the case of `Cc1cc(Cn2c(=O)c3c(ncn3CC(=O)Nc3cccc(-c4cnc(C)c(F)c4)n3)n(C)c2=O)no1` [Compound 228, N-(5′-fluoro-6′-methyl-[2,3′-bipyridin]-6-yl)-2-(3-methyl-1-((5-methylisoxazol-3-yl)methyl)-2,6-dioxo-2,3-dihydro-1H-purin-7(6H)-yl)acetamide] it was 7.77.
